Reference: patent publication US11464859B2 (priority 2005, dated 2022)
Entries after “also recorded” stand apart in the source; their conditions may differ.

What was measured:
[1] = test system: acute promyelocytic leukaemia; settings: cited from earlier work; for efficacy and side effects compared with intravenous arsenic trioxide: oral, pilot study, patients with acute promyelocytic leukaemia, preliminary results
[2] = test system: many different cancer cell lines; settings: cited from earlier work
[3] = cited from earlier work
[4] = test system: human tumour xenografts (renal cell carcinoma RXF 944LX, mammary cancer MAXF 401)
[5] = test system: telomeres of human cancer cells; assay type: cell-based; settings: sodium salt
telomerase = telomerase (Homo sapiens, UniProt O14746); assay type: biochemical; settings: sodium salt
[6] = test system: prostate and/or urogenital cancer and bone metastasis; settings: human, in vivo
[7] = test system: panel of 43 human tumour cell lines
[8] = in vivo
[9] = in vivo; remark: listed apart in the source
[10] = human, in vivo

telomerase, sequence (O14746 whole entry): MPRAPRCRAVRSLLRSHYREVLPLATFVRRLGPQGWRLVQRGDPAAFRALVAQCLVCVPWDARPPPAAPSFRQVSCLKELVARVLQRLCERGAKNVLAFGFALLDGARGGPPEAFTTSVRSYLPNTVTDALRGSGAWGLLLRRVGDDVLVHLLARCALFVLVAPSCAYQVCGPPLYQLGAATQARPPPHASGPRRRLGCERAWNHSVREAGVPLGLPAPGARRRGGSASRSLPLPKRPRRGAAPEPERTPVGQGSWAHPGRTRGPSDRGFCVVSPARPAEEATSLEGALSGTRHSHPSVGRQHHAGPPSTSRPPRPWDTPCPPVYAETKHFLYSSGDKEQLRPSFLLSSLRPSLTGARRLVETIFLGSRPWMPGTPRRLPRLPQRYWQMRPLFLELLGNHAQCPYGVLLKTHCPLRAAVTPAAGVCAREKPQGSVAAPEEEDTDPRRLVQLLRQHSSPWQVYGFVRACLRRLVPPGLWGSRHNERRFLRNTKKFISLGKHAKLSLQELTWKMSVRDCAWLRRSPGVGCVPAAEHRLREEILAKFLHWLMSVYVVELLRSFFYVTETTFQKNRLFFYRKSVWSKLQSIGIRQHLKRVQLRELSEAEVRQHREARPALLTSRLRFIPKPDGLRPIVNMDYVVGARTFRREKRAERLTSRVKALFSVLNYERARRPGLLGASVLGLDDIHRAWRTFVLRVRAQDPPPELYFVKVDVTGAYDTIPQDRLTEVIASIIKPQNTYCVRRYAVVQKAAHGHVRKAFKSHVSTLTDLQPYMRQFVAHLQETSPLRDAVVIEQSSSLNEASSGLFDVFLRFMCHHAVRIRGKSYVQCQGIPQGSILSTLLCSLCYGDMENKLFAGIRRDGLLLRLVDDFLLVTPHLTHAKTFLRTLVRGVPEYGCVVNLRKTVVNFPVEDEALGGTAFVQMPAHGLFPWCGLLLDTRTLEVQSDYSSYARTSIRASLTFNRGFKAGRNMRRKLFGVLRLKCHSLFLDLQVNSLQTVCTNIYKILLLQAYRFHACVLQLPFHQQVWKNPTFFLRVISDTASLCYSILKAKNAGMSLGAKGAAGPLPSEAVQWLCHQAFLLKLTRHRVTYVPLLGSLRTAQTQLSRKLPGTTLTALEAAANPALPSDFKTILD

S1[As]2S[As]3S[As]2S[As]13 [tetra-arsenic tetrasulphide]
efficacy and side effects compared with intravenous arsenic trioxide [1]: The same was noted

arsenic trioxide
clinical response ([1]; daily intravenous administration alone, newly diagnosed and relapsed acute promyelocytic leukaemia): complete responses in a large majority of patients | efficacy and side effects compared with intravenous arsenic trioxide [1]: comparable | effect on growth and apoptosis [2]: inhibits growth and promotes apoptosis | incidence of the listed adverse events (fatigue, fever, oedema, chest pain, nausea, ECG abnormalities etc.) ([3]; patients treated with arsenic trioxide): ≥ 10 % of patients | effect on QT interval ([3]; patients): prolong the QT and QT interval corrected for rate (QTc)

arsenous acid sodium salt
anti-tumour activity in a human tumour model in vivo [4]: showed anti-tumour activity | activity in subcutaneously transplanted human tumour xenografts ([4]; in vivo): borderline active in 2/7 | efficacy by schedule ([4]; in vivo): better | effect on telomeres [5]: capable of shortening the telomeres of human cancer cells; also recorded: capable of shortening telomeres of human cancer cells, inducing cellular senescence and chromosomal abnormalities | inhibition of telomerase activity (telomerase): doesn't inhibit telomerase activity; also recorded: does not directly inhibit the telomerase activity | PSA levels and tumour size, overall [6]: a reduction in their PSA levels and tumour size | change in PSA levels, judgement [6]: clinically significant change | clinical response, overall [6]: Most patients showed at least a partial response | decrease in tumour activity [6]: 99.15% | further reduction in tumour activity [6]: 67.56% | further tumour activity reduction [6]: 40.32% | quality of life [6]: strongly ameliorated | IC50 [7]: 600 nM | combination effect [7]: additive effects | potency among three arsenic compounds [7]: most potent | potency relative to arsenic trioxide [7]: at least 15 fold | absorption [8]: rapidly absorbed | persistence in plasma [8]: remained in the plasma for prolonged periods | bioavailability ([8]; po): approximately 100% | main target organs of toxicity [9]: bone marrow and lymphoid organs | change in ECG activity, audiometry or neurological examinations [10]: no change | disturbance of patients' well-being feeling [10]: did not cause any disturbance | glucose levels [10]: always appeared elevated | hemoglobin concentration at end [10]: 11.1 | hemoglobin concentration at start [10]: 10.0 | liver transaminases sGOT, sGPT and sGGT [10]: reversible increase | sGGT elevation [10]: worsened | sGGT elevation and thrombocytosis [10]: remained unchanged | sGPT [10]: reversible and slight increase | triglycerides and cholesterol level [10]: unchanged | occurrence of the adverse events known for arsenic trioxide ([10]; po): none of these adverse events have been observed
